According to BindingDB's records for doi:10.1021/jm980094b (National Institute of Diabetes, 1998):

Biological target: Adenosine receptor A2a (Rattus norvegicus, UniProt P30543)
Assay: Binding affinity was determined in radioligand binding assay at rat striatal Adenosine A2A receptor vs [3H]-CGS- 21680

Adenosine receptor A2a, sequence (P30543 whole entry): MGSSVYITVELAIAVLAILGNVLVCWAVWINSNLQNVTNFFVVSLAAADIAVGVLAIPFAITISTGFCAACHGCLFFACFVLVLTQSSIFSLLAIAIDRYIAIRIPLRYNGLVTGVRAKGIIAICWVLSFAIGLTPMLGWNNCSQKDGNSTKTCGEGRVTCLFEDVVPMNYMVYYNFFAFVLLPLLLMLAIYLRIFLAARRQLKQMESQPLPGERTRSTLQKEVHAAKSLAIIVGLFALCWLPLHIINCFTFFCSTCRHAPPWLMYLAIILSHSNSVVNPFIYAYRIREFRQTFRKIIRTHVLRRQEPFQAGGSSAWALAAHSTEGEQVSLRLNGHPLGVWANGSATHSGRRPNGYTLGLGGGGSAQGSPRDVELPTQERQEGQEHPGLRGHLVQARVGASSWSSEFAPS

Ki: > 100 nM
SMILES: CCOC(=O)C1C(C)=NC(c2ccccc2)=C(C(=O)OCc2ccccc2)C1C#Cc1ccccc1 (stereo unspecified) [CAS_393594]
